Results reported in patent US20240174603A1 (Rappta Therapeutics Oy, priority 2021, published 2024).

System: HCC1937 cells
Assay: HCC1937 cell viability assay (MTS)
Assay type: cell-based
Settings: Homo sapiens; HCC1937 cell line, 48 hours, MTS assay (footnote a)
Protocol: HCC1937 cells are plated in a 96 well plate format at a density of 10,000 cells per well. After incubation overnight, cells are treated with a compound (e.g., compound 263) at following concentrations: 80, 40, 20, 10, 5, 2.5, 1.25 μM. Compound concentrations are prepared in RPMI via serial dilutions from a starting stock of 80 mM. 48 hours after compound treatment, cell viability is assessed using the Promega CellTiter 96 aqueous one proliferation assay (Promega G3582, MTS assay) according to manufacturer's protocol.
The cell viability data was analyzed with GraphPad Prism software. The values were log transformed and analyzed with non-linear regression (curve-fit) using log(inhibitor) vs. response-variable slope (four parameters) and constraining the bottom to equal zero. Unless otherwise indicated, the GI50 values provided in Table 113 correspond to the LNCaP cell viability assays.

Row | GI50 [µM] | Structure (SMILES)
1 | 75.7 | O=S(=O)(NCC1(c2ccccc2)CCCN1)c1ccc(OC(F)(F)F)cc1 (stereo not drawn) [Compound 263, N-((2-phenylpyrrolidin-2-yl)methyl)-4-(trifluoromethoxy)benzenesulfonamide]

System: LNCaP cells
Assay: LNCaP cell viability assay (MTS)
Assay type: cell-based
Settings: Homo sapiens, LNCaP, 48 h, LNCaP cell line
Summary of the method: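 LNCaP cells (5000/well) treated 24 h after plating with compound at 1–80 µM for 48 h. Relative cell number read by MTS; GI50 from four-parameter variable-slope log(inhibitor) fit with bottom constrained to zero.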

Row | GI50 [µM] | Structure (SMILES)
2 | 38 | COC(=O)C(Cc1ccc(O)c(F)c1)NS(=O)(=O)c1ccc(OC(F)(F)F)cc1 (stereo not drawn) [Compound 112, Methyl 3-(3-fluoro-4-hydroxyphenyl)-2-((4-(trifluoromethoxy)phenyl)sulfonamido)propanoate]
3 | 21.1 | CN(C)CC(NS(=O)(=O)c1ccc(Oc2cccc(F)c2)cc1)c1ccc(Cl)c(Cl)c1 (stereo not drawn) [Compound 220, N-(1-(3,4-dichlorophenyl)-2-(dimethylamino)ethyl)-4-(3-fluorophenoxy)benzenesulfonamide]
4 | 35 | CC[C@H](NS(=O)(=O)c1ccc(OC(F)(F)F)cc1)c1cc(F)ccc1F [Compound 66, (S)—N-(1-(2,5-difluorophenyl)propyl)-4-(trifluoromethoxy)benzenesulfonamide]
5 | 49.7 | CCOC(=O)C(NS(=O)(=O)c1ccc(OC(F)(F)F)cc1)c1ccc(OC)c(Br)c1 (stereo not drawn) [Compound 16, Ethyl 2-(3-bromo-4-methoxyphenyl)-2-((4-(trifluoromethoxy)phenyl)sulfonamido)acetate]
6 | 61 | CCOC(=O)C(CC1CCOC1)NS(=O)(=O)c1ccc(OC(F)(F)F)cc1 (stereo not drawn) [Compound 110, Ethyl 3-(tetrahydrofuran-3-yl)-2-((4-(trifluoromethoxy)phenyl)sulfonamido)propanoate]
7 | 31 | O=S(=O)(NCCNS(=O)(=O)c1ccc(F)c(Cl)c1)c1ccc(OC(F)(F)F)cc1 [Compound 96, 3-chloro-4-fluoro-N-(2-((4-(trifluoromethoxy)phenyl)sulfonamido)ethyl)benzenesulfonamide]
8 | 25 | CCOC(=O)CC(NS(=O)(=O)c1ccc(OC(F)(F)F)cc1)c1cccc(C(F)(F)F)c1 (stereo not drawn) [Compound 94, Ethyl 3-((4-(trifluoromethoxy)phenyl)sulfonamido)-3-(3-(trifluoromethyl)phenyl)propanoate]
9 | 12.5 | CN(C)CC(NS(=O)(=O)c1ccc(OC2CCCC2)cc1)c1ccc(Cl)c(Cl)c1 (stereo not drawn) [Compound 210, 4-(cyclopentyloxy)-N-(1-(3,4-dichlorophenyl)-2-(dimethylamino)ethyl)benzenesulfonamide]
10 | 29.1 | O=S(=O)(NC(c1cccc(C(F)(F)F)c1)C1CCCCC1)c1ccc(OC(F)(F)F)cc1 (stereo not drawn) [Compound 36, N-(cyclohexyl(3-(trifluoromethyl)phenyl)methyl)-4-(trifluoromethoxy)benzenesulfonamide]
11 | 15 | CC1CCCCC1OCCNS(=O)(=O)c1ccc(OC(F)(F)F)cc1 (stereo not drawn) [Compound 95, N-(2-((2-methylcyclohexyl)oxy)ethyl)-4-(trifluoromethoxy)benzenesulfonamide]
12 | 24.6 | CN(C)CC(NS(=O)(=O)c1ccc(OC(F)(F)F)c(C#N)c1)c1ccc(Cl)c(Cl)c1 (stereo not drawn) [Compound 240, 3-cyano-N-(1-(3,4-dichlorophenyl)-2-(dimethylamino)ethyl)-4-(trifluoromethoxy)benzenesulfonamide]
13 | 49 | O=S(=O)(NCCCN(Cc1ccco1)CC1CCCO1)c1ccc(OC(F)(F)F)cc1 (stereo not drawn) [Compound 79, N-(3-((furan-2-ylmethyl)((tetrahydrofuran-2-yl)methyl)amino)propyl)-4-(trifluoromethoxy)benzenesulfonamide]

Same assay, conditions: LNCaP cell line, 48 hours

Row | GI50 [µM] | Structure (SMILES)
14 | 53.8 | CN(C)CC(NS(=N)(=O)c1ccc(OC(F)(F)F)cc1)c1ccc(Cl)c(Cl)c1 (single isomer, unassigned) [Compound 165b, N-(1-(3,4-dichlorophenyl)-2-(dimethylamino)ethyl)-4-(trifluoromethoxy)benzenesulfonimidamide]
15 | 23.9 | CN(C)CC(NS(=O)(=O)c1ccc(OC(F)(F)F)cc1)c1ccc(Cl)c(Cl)c1 (single isomer, unassigned) [Compound 149, N-(1-(3,4-dichlorophenyl)-2-(dimethylamino)ethyl)-4-(trifluoromethoxy)benzenesulfonamide]
